From patent US8030443B2, “Squamous cell carcinoma antigen-derived peptide binding to HLA-A24 molecule” (Kurume University, priority 2005, dated 2011)

Test system: peptide-specific IgG in sera of cancer patients and healthy donors
Assay: Measurement of anti-peptide IgG in plasma by LUMINEX multiplexed flow cytometric assay
Format: binding, human
Protocol: The levels of anti-peptide immunoglobulin G (IgG) were measured by the LUMINEX™ system (multiplexed flow cytometric assay) as previously reported (Komatsu N, Shichijo S, Nakagawa M, Itoh K. New multiplexed flow cytometric assay to measure anti-peptide antibody: a novel tool for monitoring immune responses to peptides used for immunization. Scand J Clin Lab Invest 2004; 64:1-11). In brief, plasma was incubated with 25 μl of peptide-coupled color-coded beads for 2 hr at room temperature on a plate shaker. After incubation, the mixture was washed with a vacuum manifold apparatus and incubated with 100 μl of biotinylated goat anti-human IgG (γ chain-specific)(BA-3080, Vector Laboratories, Burlingame, Calif., USA) for 1 h at room temperature. The plate was then washed, followed by the addition of 100 μl of streptavidin-PE (S-866, Molecular Probes, Eugene, Oreg., USA) into wells, and was incubated for 30 min at room temperature on a plate shaker. The bound beads were washed three times followed by the addition of 100 μl of Tween-PBS into each well. Fifty μl of sample was detected using the LUMINEX™ system (multiplexed flow cytometric assay). To confirm the specificity of IgG to a SCCA peptide, sample plasma was cultured in plates coated with a corresponding SCCA peptide, or with an irrelevant SCCA peptide. After the operation was repeated three times, the levels of the corresponding SCCA peptide-specific IgG in the resulting supernatant were determined by the LUMINEX™ system (multiplexed flow cytometric assay).
These 9 SCCA-derived peptides were screened based on their ability to be recognized by IgG in cancer patients. Peptide-specific IgG was measured by a multiplexed flow cytometric assay (LUMINEX™ (multiplexed flow cytometric assay)). The plasma samples were derived from 35 uterine cervical SCC patients, 10 breast adenocarcinoma patients, 10 pancreatic adenocarcinoma patients, 10 gastric adenocarcinoma, and 6 colon adenocarcinoma patients. The level of fluorescence intensity was judged to be significant when exceeded 100 at an 1/100 dilution.

What does the source list for “AYELKIANKL (SCCA 98-107 peptide) [SCCA-derived peptide, position 98-107]”?
Total: healthy donors with significant peptide-reactive IgG / donors tested (10 healthy donors, significant when fluorescence intensity exceeded 100 at 1/100 dilution): 1/10; Total: cancer patients with significant peptide-reactive IgG / patients tested (71 cancer patients, significant when fluorescence intensity exceeded 100 at 1/100 dilution): 12/71; Fluorescence intesity (serum of Breast Ca. patient #36, 1:100 dilution): 44; Fluorescence intesity (serum of Breast Ca. patient #37, 1:100 dilution): 18; Fluorescence intesity (serum of Breast Ca. patient #38, 1:100 dilution): 12; Fluorescence intesity (serum of Breast Ca. patient #39, 1:100 dilution): 20; Fluorescence intesity (serum of Breast Ca. patient #40, 1:100 dilution): 10; Fluorescence intesity (serum of Breast Ca. patient #41, 1:100 dilution): 214; Fluorescence intesity (serum of Breast Ca. patient #42, 1:100 dilution): 12; Fluorescence intesity (serum of Breast Ca. patient #43, 1:100 dilution): 12; Fluorescence intesity (serum of Breast Ca. patient #44, 1:100 dilution): 0; Fluorescence intesity (serum of Breast Ca. patient #45, 1:100 dilution): 18; Fluorescence intesity (serum of Colon Ca. patient #66, 1:100 dilution): 0; Fluorescence intesity (serum of Colon Ca. patient #67, 1:100 dilution): 0; Fluorescence intesity (serum of Colon Ca. patient #68, 1:100 dilution): 0; Fluorescence intesity (serum of Colon Ca. patient #69, 1:100 dilution): 0; Fluorescence intesity (serum of Colon Ca. patient #70, 1:100 dilution): 0; Fluorescence intesity (serum of Colon Ca. patient #71, 1:100 dilution): 26; Fluorescence intesity (serum of Gastric Ca. patient #56, 1:100 dilution): 2; Fluorescence intesity (serum of Gastric Ca. patient #57, 1:100 dilution): 0; Fluorescence intesity (serum of Gastric Ca. patient #58, 1:100 dilution): 0; Fluorescence intesity (serum of Gastric Ca. patient #59, 1:100 dilution): 15; Fluorescence intesity (serum of Gastric Ca. patient #60, 1:100 dilution): 1; Fluorescence intesity (serum of Gastric Ca. patient #61, 1:100 dilution): 8; Fluorescence intesity (serum of Gastric Ca. patient #62, 1:100 dilution): 0; Fluorescence intesity (serum of Gastric Ca. patient #63, 1:100 dilution): 0; Fluorescence intesity (serum of Gastric Ca. patient #64, 1:100 dilution): 0; Fluorescence intesity (serum of Gastric Ca. patient #65, 1:100 dilution): 0; Fluorescence intesity (serum of Healthy Donor #1, 1:100 dilution): 0; Fluorescence intesity (serum of Healthy Donor #2, 1:100 dilution): 35; Fluorescence intesity (serum of Healthy Donor #3, 1:100 dilution): 0; Fluorescence intesity (serum of Healthy Donor #4, 1:100 dilution): 0; Fluorescence intesity (serum of Healthy Donor #5, 1:100 dilution): 0; Fluorescence intesity (serum of Healthy Donor #6, 1:100 dilution): 0; Fluorescence intesity (serum of Healthy Donor #7, 1:100 dilution): 0; Fluorescence intesity (serum of Healthy Donor #8, 1:100 dilution): 361; Fluorescence intesity (serum of Healthy Donor #9, 1:100 dilution): 39; Fluorescence intesity (serum of Healthy Donor #10, 1:100 dilution): 0; Fluorescence intesity (serum of Pancreas Ca. patient #46, 1:100 dilution): 0; Fluorescence intesity (serum of Pancreas Ca. patient #47, 1:100 dilution): 6; Fluorescence intesity (serum of Pancreas Ca. patient #48, 1:100 dilution): 369; Fluorescence intesity (serum of Pancreas Ca. patient #49, 1:100 dilution): 0; Fluorescence intesity (serum of Pancreas Ca. patient #50, 1:100 dilution): 0; Fluorescence intesity (serum of Pancreas Ca. patient #51, 1:100 dilution): 0; Fluorescence intesity (serum of Pancreas Ca. patient #52, 1:100 dilution): 100; Fluorescence intesity (serum of Pancreas Ca. patient #53, 1:100 dilution): 0; Fluorescence intesity (serum of Pancreas Ca. patient #54, 1:100 dilution): 0; Fluorescence intesity (serum of Pancreas Ca. patient #55, 1:100 dilution): 0; Fluorescence intesity (serum of Uterine cervical Ca. patient #1, 1:100 dilution): 11; Fluorescence intesity (serum of Uterine cervical Ca. patient #2, 1:100 dilution): 0; Fluorescence intesity (serum of Uterine cervical Ca. patient #3, 1:100 dilution): 0; Fluorescence intesity (serum of Uterine cervical Ca. patient #4, 1:100 dilution): 0; Fluorescence intesity (serum of Uterine cervical Ca. patient #5, 1:100 dilution): 0; Fluorescence intesity (serum of Uterine cervical Ca. patient #6, 1:100 dilution): 1226; Fluorescence intesity (serum of Uterine cervical Ca. patient #7, 1:100 dilution): 26; Fluorescence intesity (serum of Uterine cervical Ca. patient #8, 1:100 dilution): 26; Fluorescence intesity (serum of Uterine cervical Ca. patient #9, 1:100 dilution): 58; Fluorescence intesity (serum of Uterine cervical Ca. patient #10, 1:100 dilution): 14; Fluorescence intesity (serum of Uterine cervical Ca. patient #11, 1:100 dilution): 33; Fluorescence intesity (serum of Uterine cervical Ca. patient #12, 1:100 dilution): 33; Fluorescence intesity (serum of Uterine cervical Ca. patient #13, 1:100 dilution): 397; Fluorescence intesity (serum of Uterine cervical Ca. patient #14, 1:100 dilution): 26; Fluorescence intesity (serum of Uterine cervical Ca. patient #15, 1:100 dilution): 136; Fluorescence intesity (serum of Uterine cervical Ca. patient #16, 1:100 dilution): 145; Fluorescence intesity (serum of Uterine cervical Ca. patient #17, 1:100 dilution): 72; Fluorescence intesity (serum of Uterine cervical Ca. patient #18, 1:100 dilution): 71; Fluorescence intesity (serum of Uterine cervical Ca. patient #19, 1:100 dilution): 92; Fluorescence intesity (serum of Uterine cervical Ca. patient #20, 1:100 dilution): 85; Fluorescence intesity (serum of Uterine cervical Ca. patient #21, 1:100 dilution): 28; Fluorescence intesity (serum of Uterine cervical Ca. patient #22, 1:100 dilution): 28; Fluorescence intesity (serum of Uterine cervical Ca. patient #23, 1:100 dilution): 82; Fluorescence intesity (serum of Uterine cervical Ca. patient #24, 1:100 dilution): 2650; Fluorescence intesity (serum of Uterine cervical Ca. patient #25, 1:100 dilution): 17; Fluorescence intesity (serum of Uterine cervical Ca. patient #26, 1:100 dilution): 166; Fluorescence intesity (serum of Uterine cervical Ca. patient #27, 1:100 dilution): 33; Fluorescence intesity (serum of Uterine cervical Ca. patient #28, 1:100 dilution): 139; Fluorescence intesity (serum of Uterine cervical Ca. patient #29, 1:100 dilution): 21; Fluorescence intesity (serum of Uterine cervical Ca. patient #30, 1:100 dilution): 50; Fluorescence intesity (serum of Uterine cervical Ca. patient #31, 1:100 dilution): 107; Fluorescence intesity (serum of Uterine cervical Ca. patient #32, 1:100 dilution): 18; Fluorescence intesity (serum of Uterine cervical Ca. patient #33, 1:100 dilution): 191; Fluorescence intesity (serum of Uterine cervical Ca. patient #34, 1:100 dilution): 17; Fluorescence intesity (serum of Uterine cervical Ca. patient #35, 1:100 dilution): 21
